Experimental data as given in PMC4467147, “Identification of epipolythiodioxopiperazines HDN-1 and chaetocin as novel inhibitor of heat shock protein 90” (Oncotarget, 2015).
Like-named read-outs stand apart in the source and are kept apart here.

Assays:
H1975 cells [1] = experiment: Drug combination study HDN-1 and 17-AAG, MTT assay, H1975; type: cell-based, human; settings: H1975, 72 h
Experimental: (§1) A modified tetrazolium salt assay was used to measure the inhibition of cancer cell growth. Cancer cells were plated into a 96-well microtiter plate containing 0.1 ml of growth media/well for 24 h, then were incubated with HDN-1 at indicated concentrations dissolved in DMSO for 72 h. 3-(4,5-Dimethylthiazol-2-yl)-2,5- diphenyltetrazoliumbromide (MTT) was added to each well of a 96-well plate. After 4 h incubation, the formazan product was dissolved and quantitated spectrophotometrically at a wavelength of 560 nm. Percent viability of each sample was calculated from the A560 values as follows: % viability = (A560 nm sample / A560 nm DMSO-treated cells × 100). The IC50 was defined as the concentration that gave rise to 50% inhibition of cell viability.
H1975 cell were seeded in triplicate in 96-well plates and treated with HDN-1 or 17-AAG alone or with the combination of HDN-1 and 17-AAG at the indicated doses. MTT assays were performed after 72 h of treatment. The Q (value) was calculated according to Jin's formula: Q = Ea+b/(Ea+Eb−Ea × Eb). Ea+b represented the inhibition rate of drug combination, Ea and Eb represented the inhibition rate of drug A and B alone, respectively. Q (value) = 0.85–1.15 stands for additivity, Q (value) > 1.15–2.0 stands for synergism, and Q (value) < 0.85–0.55 stands for antagonism.

HCC827 cells = experiment: MTT cell viability assay, HCC827; type: cell-based, human; settings: HCC827, 72 h, read-out: IC50 cell proliferation
Experimental: as §1

H1975 cells [2] = experiment: MTT cell viability assay, H1975; type: cell-based; settings: Homo sapiens, NCI-H1975, H1975, 72 h, read-out: IC50 cell proliferation
Experimental: as §1

Hsp90 client proteins = experiment: Western blotting of Hsp90 client proteins and Hsp70 in NSCLC cells; type: cell-based, human; settings: for effect on level of SUV39H1: 24 h; for effect on Hsp90 client protein levels (EGFR, Akt, Cyclin D1 etc.): NSCLC cells
Experimental: Cells were incubated with HDN-1 at indicated concentrations and time, then washed with PBS twice, disrupted on ice for 30 min in loading buffer, and boiled for 10 min. Protein concentration was determined with BCA reagent. Equal amounts of protein in cell lysates were separated by SDS-PAGE, transferred to membranes, immunoblotted with indicated primary and secondary antibodies, and detected by chemiluminescence with the enhanced chemiluminescence detection reagents (PIERCE). The antibodies of following proteins were used: EGFR, phosphorylated EGFR (Tyr1068), Akt, phosphorylated Akt (Ser473), MAPK, phosphorylated MAPK (Thr202/Tyr204), ubiquitin, Hsp70, β-Actin; Abl, Stat3, phosphorylated Stat3 (Ser727), Raf-1, cyclin D1. For immunoprecipitation assay, cell lysate protein was incubated overnight at 4°C with the designated antibody and protein G-Sepharose (Amersham Biosciences) was added overnight while rocking. Precipitates were washed three times with lysis buffer and once with PBS, resuspended in 2 × loading buffer, and resolved by SDS-PAGE followed by immunoblot analysis.

full length Hsp90α = biological target: T1, full length Hsp90α (Homo sapiens, UniProt P07900); experiment: SPR binding to full-length Hsp90α immobilized on sensor chip; settings: 25°C, 1:1 Langmuir model, read-out: dissociation constant (Kd) for full-length Hsp90α
T1 construct: For full length Hsp90α, Hsp90α was coupled to the surface of a GLH sensor chip using amine coupling
Experimental: (§2) SPR analysis was carried out with a ProteOn XPR36 instrument (Bio-Rad) or ForteBio's Octet RED96 to determine binding of various molecules to full length Hsp90α or C-terminal Hsp90α. For full length Hsp90α, Hsp90α was coupled to the surface of a GLH sensor chip using amine coupling. The coupling has been performed according to the manufacturer's instructions. Binding experiments were performed with multiple concentrations of HDN-1 and chaetocin running over the surface of the chip at 25°C, at a constant flow rate of 30 μl/min in PBS-T (10 mM Phosphate, 150 mM NaCl, pH 7.4 and 0.005% Tween20 [v/v]). The sensor chip surface was regenerated using 0.85% H3PO4. Changes in mass due to the binding response were recorded as resonance units (RU). To obtain the dissociation constant (Kd), these responses were fit to a 1:1 Langmuir binding model by nonlinear regression using the BiaEvaluation 4.1 software program. For interplay of HDN-1 with other molecules, 50 μM 17-AAG, 50 μM novobiocin, or 100 μM ATP was injected into Hsp90α-immobilized chip and the RU values were recorded in succession for indicated time, then these compounds were replaced by 50 μM HDN-1, and RU values were recorded unceasingly. Similar experiments were conversely performed and RU values were recorded. […] Binding of samples (31.25–500 μM) to coated and uncoated reference sensors was measured over 60 s. […]

[3] = biological target: T2, C-terminal Hsp90 fragment (535–732aa) of human Hsp90α (Homo sapiens, UniProt P07900); experiment: ForteBio Octet binding to biotinylated C-terminal Hsp90α; settings: Octet RED96, read-out: Kd for C-terminus of Hsp90α
T2 construct: recombinant C-terminal Hsp90 fragment (535–732aa) of human Hsp90α
Experimental: as §2

A549 cells = experiment: MTT cell viability assay, A549; type: cell-based, human; settings: A549, 72 h, read-out: IC50 cell proliferation
Experimental: as §1

Hsp90α ATPase = Hsp90α ATPase (Homo sapiens, UniProt P07900); experiment: Hsp90α ATPase activity; type: biochemical; settings: data not shown
Hsp90α = biological target: T3, Hsp90α (Homo sapiens, UniProt P07900); experiment: Fluorescence polarization competitive assay, displacement of FITC-GA from Hsp90α; settings: 200 nM FITC-GA, 30 nM Hsp90α; read-out: IC50, effect on the binding of GA to Hsp90
T3 construct: For full length Hsp90α, Hsp90α was coupled to the surface of a GLH sensor chip using amine coupling
Experimental: Fluorescence polarization assays were performed under the following conditions: each 96-well plate contained 200 nM FITC-GA, Hsp90α (30 nM), and tested inhibitor (initial stock in DMSO) in a final volume of 100 μl. For each assay, background wells (buffer only), tracer controls (free, FITC-GA only), and bound GA controls (fluorescent GA in the presence of Hsp90) were included on each assay plate. The fraction of tracer bound to Hsp90 was correlated to the mP value and plotted against log10 values of competitor concentrations. The HDN-1 and 17-AAG concentrations at which 50% of bound GA was displaced was obtained by fitting the data. Fluorescence intensity measurements were obtained using a SpectraMax M5 (Molecular Devices, Sunnyvale, CA). The excitation and emission wavelengths were 485 nm and 530 nm, respectively.

[4] = biological target: C-terminus of ATP binding site (660–680 aa) of Hsp90α; parameters: method as in PMID 11751878; settings: read-out: binding affinity to C-terminus of ATP binding site of Hsp90α; cited from earlier work

C=CCNC1=C2C[C@@H](C)C[C@H](OC)[C@H](O)[C@@H](C)/C=C(\C)[C@H](OC(N)=O)[C@@H](OC)/C=C\C=C(/C)C(=O)NC(=CC1=O)C2=O [17-AAG]
Inhibition Rate Mean (H1975 cells [1]; single agent 100 nM): 0.070
Inhibition Rate Mean (H1975 cells [1]; single agent 200 nM): 0.267
Inhibition Rate Mean (H1975 cells [1]; single agent 300 nM): 0.393

CN1C(=O)[C@]23SSS[C@@]1(CO)C(=O)N2[C@H]1Nc2ccccc2C1(C12c4ccccc4N[C@@H]1N1C(=O)[C@]4(CO)SS[C@]1(C(=O)N4C)[C@H]2O)[C@@H]3O (stereo partly shown) [HDN-1]
IC50 (HCC827 cells): 1.06 µM
IC50 (HCC827 cells; Homo sapiens): 0.54 µM
IC50 (H1975 cells [2]): 0.22 µM
inhibition at 0.1 µM (H1975 cells [1]; Homo sapiens, NCI-H1975, single agent 100 nM, read-out: Inhibition Rate Mean): 5.1%
inhibition at 0.2 µM (H1975 cells [1]; Homo sapiens, NCI-H1975, single agent 200 nM, read-out: Inhibition Rate Mean): 37.1%
effect on level of SUV39H1 (Hsp90 client proteins; Western blotting): decline
effect on Hsp70 expression (Hsp90 client proteins; H1975, HCC827, A549 cells, Western blotting): did not obviously affect
effect on HIF-1α (Hsp90 client proteins; H1975 and A549 cells, CoCl2-induced hypoxia or 5% CO2 and 2% O2): degraded
effect on Hsp90 client protein levels (EGFR, Akt, Cyclin D1 etc.) (Hsp90 client proteins; Western blotting): reduced the expression levels
Kd (full length Hsp90α): 14.6 µM
Kd [3]: 201 µM
IC50 (A549 cells): 0.54 µM
IC50 (A549 cells; Homo sapiens): 1.06 µM
effect on Hsp90α ATPase activity (Hsp90α ATPase): no effect
IC50 (Hsp90α): > 10 µM

CO[C@@H]1[C@@H](OC(N)=O)[C@@H](O)[C@H](Oc2ccc3c(O)c(NC(=O)c4ccc(O)c(CC=C(C)C)c4)c(=O)oc3c2C)OC1(C)C [Novobiocin]
Kd [4]: ~3300 µM

CN1C(=O)[C@@]23C[C@]4([C@]56C[C@@]78SS[C@@](CO)(C(=O)N7[C@H]5Nc5ccccc56)N(C)C8=O)c5ccccc5N[C@@H]4N2C(=O)[C@]1(CO)SS3 [chaetocin]
effect on level of SUV39H1 (Hsp90 client proteins; Western blotting): decline
effect on Hsp90 client protein levels (EGFR, Akt, Cyclin D1 etc.) (Hsp90 client proteins; Western blotting): degraded client proteins
Kd (full length Hsp90α): 16.8 µM
